The source of these data is patent US9458456B2, “Methods and compositions for the diagnosis, classification, and treatment of cancer” (UNIVERSITY OF SOUTH ALABAMA, priority 2011, dated 2016).

Holding throughout (format): cell-based
Holding throughout (details): Homo sapiens

The subject of assay [1] is C4-2 shMyb Myb-knockdown castration-resistant prostate cancer cells. The assay can be described thus: Docetaxel cell viability, C4-2shMyb cells. On the procedure: (§1) Castration-resistant prostate cancer cells (C4-2), Myb-knockdown castration-resistant prostate cancer cells (C4-2 shMyb), androgen-dependent prostate cancer cells (LNCap-Neo), Myb-overexpressing androgen-dependent prostate cancer cells (LNCaP-Myb), were treated with increasing concentrations of Docetaxel and the viability tested at 48 hr and 72 hr post-treatment. […] Table 2 summarizes the IC50 values for docetaxel in the various cell lines.

The subject of assay [2] is LNCaP-Neo androgen-dependent prostate cancer cells. The assay can be described thus: Docetaxel cell viability, LNCaP-Neo cells. Here is the method:
as §1

Assay [3] deals with LNCaP-Myb Myb-overexpressing androgen-dependent prostate cancer cells. The assay can be described thus: Docetaxel cell viability, LNCaP-Myb cells. Here is the method:
as §1

The subject of assay [4] is C4-2 castration-resistant prostate cancer cells. The assay can be described thus: Docetaxel cell viability, C4-2 cells. Here is the method:
as §1

The structures appear in SMILES notation.

As for `CC(=O)O[C@@]12CO[C@@H]1C[C@H](O)[C@@]1(C)C(=O)[C@H](O)C3=C(C)[C@@H](OC(=O)[C@H](O)[C@@H](NC(=O)OC(C)(C)C)c4ccccc4)C[C@@](O)([C@@H](OC(=O)c4ccccc4)[C@H]21)C3(C)C` [Docetaxel], the IC50 in assay [1] (48 hours) worked out at 7 µM; in assay [1] (72 hours), 4.8 µM; in assay [2] (48 hours) it was 7.6 µM; in assay [2] (72 hours) it was 4.9 µM; in assay [3] (48 hours), 20.6 µM; in assay [3] (72 hours) it was 14.8 µM. Besides, the IC50 was found to be 18.2 µM in assay [4] (C4-2, 48 hours) and 13.1 µM in assay [4] (C4-2, 72 hours).
